According to the NIST ThermoML archive (doi:10.1016/j.jct.2006.03.016):

Experiment: molar heat capacity at constant pressure
Conditions: 101.33 kPa, Crystal, Small (less than 1 g) adiabatic calorimetry

[Al+3].[Al+3].[O-2].[O-2].[O-2] [aluminum oxide (Al2O3)]
Conditions | molar heat capacity at constant pressure [J/K/mol]
67.51 K | 4.23
72.34 K | 5.283
77.04 K | 6.242
81.8 K | 7.403
86.61 K | 8.725
91.44 K | 10.14
96.31 K | 11.67
101.2 K | 13.33
106.12 K | 15.05
111.05 K | 16.78
116.01 K | 18.55
120.97 K | 20.4
125.95 K | 22.45
126.3 K | 22.61
130.94 K | 24.45
131.11 K | 24.51
136.11 K | 26.55
141.13 K | 28.63
146.18 K | 30.36
151.22 K | 32.53
156.26 K | 34.6
161.32 K | 36.54
166.38 K | 38.67
171.45 K | 40.51
176.54 K | 42.37
181.62 K | 44.42
186.71 K | 46.27
191.8 K | 48.19
192.43 K | 48.27
197.63 K | 50.37
202.75 K | 52.12
207.86 K | 53.85
212.97 K | 55.55
218.09 K | 57.33
223.2 K | 59.08
228.33 K | 60.72
233.45 K | 62.37
238.56 K | 63.95
243.82 K | 65.47
248.97 K | 66.83
253.98 K | 68.28
259.13 K | 69.78
264.27 K | 71.19
269.43 K | 72.53
274.59 K | 73.76
279.73 K | 74.97
284.88 K | 76.16
290.03 K | 77.34
295.19 K | 78.6
300.35 K | 79.79
305.76 K | 80.81
311 K | 82
316.16 K | 83.02
321.33 K | 83.65
326.51 K | 84.83
331.66 K | 86.08

O=C(O)c1ccccc1 [benzoic acid]
Conditions | molar heat capacity at constant pressure [J/K/mol]
15.95 K | 7.243
17.21 K | 7.834
19 K | 9.964
20.93 K | 12.14
22.91 K | 14.48
25.23 K | 16.99
27.83 K | 19.32
30.45 K | 22.55
33.46 K | 25.66
36.82 K | 28.56
40.35 K | 31.83
42.49 K | 34.49
44.38 K | 35.05
46.36 K | 38.04
50.06 K | 39.2
52.26 K | 40.57
54.24 K | 41.94
54.48 K | 43.06
56.71 K | 43.66
59.17 K | 46.1
59.64 K | 45.51
63.04 K | 47.67
67.38 K | 50.03
72.18 K | 52.48
77.01 K | 54.7
81.66 K | 56.45
86.47 K | 58.38
91.42 K | 60.83
96.33 K | 62.66
101.31 K | 64.69
106.39 K | 66.75
111.42 K | 68.59
116.46 K | 70.27
121.51 K | 72.23
126.57 K | 74.39
131.52 K | 76.4
136.54 K | 78.39
141.64 K | 80.14
146.72 K | 81.95
151.83 K | 83.84
156.96 K | 85.94
162.08 K | 87.95
167.21 K | 90.16
172.34 K | 92.08
177.47 K | 93.88
182.61 K | 95.82
187.75 K | 97.76
192.89 K | 100.22
198.03 K | 102.35
203.11 K | 104.33
208.2 K | 106.33
213.34 K | 108.35
218.49 K | 110.69
223.64 K | 113.13
228.8 K | 115.06
233.96 K | 117.66
239.1 K | 120.1
244.26 K | 122.38
249.39 K | 124.56
254.51 K | 127.05
259.67 K | 129.62
264.84 K | 131.98
269.99 K | 134.13
275.13 K | 137.14
280.31 K | 138.73
285.48 K | 141.06
290.65 K | 143.42
296.6 K | 146.34
302.17 K | 148.97
306.93 K | 151.12
312.15 K | 153.27
317.33 K | 155.37
322.49 K | 157.74
326.5 K | 160.6
330.48 K | 161.44
335.65 K | 163.8
340.82 K | 165.96

[Cu] [copper]
Conditions | molar heat capacity at constant pressure [J/K/mol]
14.2 K | 0.1027
15.68 K | 0.2097
16.38 K | 0.2384
16.77 K | 0.2351
17.8 K | 0.3079
19.33 K | 0.4049
21 K | 0.5507
22.76 K | 0.7024
24.89 K | 0.9364
27.19 K | 1.257
29.54 K | 1.621
32.17 K | 2.071
35.07 K | 2.634
35.81 K | 2.796
38.36 K | 3.344
38.95 K | 3.483
42.31 K | 4.276
46.05 K | 5.166
50.21 K | 6.197
54.08 K | 7.128
54.62 K | 7.296
56.1 K | 7.632
58.53 K | 8.226
59.11 K | 8.36
59.5 K | 8.478
63.71 K | 9.435
63.87 K | 9.508
68.55 K | 10.6
73.28 K | 11.6
78.07 K | 12.55
82.91 K | 13.41
87.8 K | 14.23
92.71 K | 15
93.13 K | 15.06
97.66 K | 15.72
97.7 K | 15.7
102.69 K | 16.38
107.7 K | 16.96
112.73 K | 17.49
117.78 K | 18.01
122.84 K | 18.49
127.92 K | 18.95
133 K | 19.37
138.1 K | 19.74
143.21 K | 20.06
148.33 K | 20.36
151.4 K | 20.55
153.45 K | 20.66
156.5 K | 20.85
158.58 K | 20.95
161.61 K | 21.11
166.74 K | 21.37
171.89 K | 21.59
177.04 K | 21.77
182.2 K | 21.94
187.36 K | 22.15
192.53 K | 22.25
197.69 K | 22.35
202.86 K | 22.6
203.62 K | 22.66
208.02 K | 22.73
208.7 K | 22.81
213.88 K | 22.96
219.05 K | 23.11
224.22 K | 23.25
229.39 K | 23.33
234.57 K | 23.45
239.76 K | 23.52
244.94 K | 23.6
247.71 K | 23.62
250.12 K | 23.7
253.15 K | 23.76
255.31 K | 23.79
261.84 K | 23.83
270.43 K | 24.07
275.79 K | 24.13
280.97 K | 24.2
286.16 K | 24.27
291.35 K | 24.32
296.54 K | 24.39
301.73 K | 24.51
306.93 K | 24.55
312.11 K | 24.54
317.29 K | 24.59
322.48 K | 24.64
327.67 K | 24.69
332.85 K | 24.81
338.04 K | 24.86
343.25 K | 24.88
348.43 K | 25.04
